The values that follow come from ChEMBL document CHEMBL1157806, “1-(3-Deoxy-3-fluoro-beta-d-glucopyranosyl) pyrimidine derivatives as inhibitors of glycogen phosphorylase b: Kinetic, crystallographic and modelling studies” (Bioorg Med Chem, 2010).

The nature of data set [1]: Dissociation constant, pKa of the compound. In kind it is physicochemical.
The target in data set [2] is T1, Glycogen phosphorylase, muscle form (Oryctolagus cuniculus, UniProt P00489).
T1 sequence (P00489 whole entry): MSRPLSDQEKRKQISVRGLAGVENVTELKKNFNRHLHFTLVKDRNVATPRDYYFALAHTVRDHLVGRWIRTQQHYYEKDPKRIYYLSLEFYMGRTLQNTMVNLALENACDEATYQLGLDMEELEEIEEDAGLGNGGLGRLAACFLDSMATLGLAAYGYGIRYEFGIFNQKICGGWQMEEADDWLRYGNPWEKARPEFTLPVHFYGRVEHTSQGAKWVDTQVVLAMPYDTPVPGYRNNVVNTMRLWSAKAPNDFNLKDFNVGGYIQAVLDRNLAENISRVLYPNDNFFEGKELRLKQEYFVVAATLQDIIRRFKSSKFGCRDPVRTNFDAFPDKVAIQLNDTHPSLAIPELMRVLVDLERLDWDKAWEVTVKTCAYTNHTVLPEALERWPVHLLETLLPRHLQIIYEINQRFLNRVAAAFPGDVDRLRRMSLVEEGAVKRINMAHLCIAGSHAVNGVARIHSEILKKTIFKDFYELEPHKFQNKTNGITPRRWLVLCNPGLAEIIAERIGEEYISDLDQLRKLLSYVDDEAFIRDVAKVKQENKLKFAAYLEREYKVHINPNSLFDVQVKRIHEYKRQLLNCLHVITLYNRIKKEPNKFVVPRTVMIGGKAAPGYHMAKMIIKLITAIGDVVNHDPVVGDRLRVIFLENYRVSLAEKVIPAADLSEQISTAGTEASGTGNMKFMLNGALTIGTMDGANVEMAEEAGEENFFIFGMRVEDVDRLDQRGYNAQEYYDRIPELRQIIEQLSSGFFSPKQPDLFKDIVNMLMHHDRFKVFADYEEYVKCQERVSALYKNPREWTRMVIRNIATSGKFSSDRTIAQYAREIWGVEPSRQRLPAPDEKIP
Briefly: Inhibition of rabbit muscle glycogen phosphorylase inactive form b.

As usually defined, the pKa is the negative logarithm of the acid dissociation constant. As to `O=c1[nH]c(=O)n([C@@H]2O[C@H](CO)C(O)[C@H](F)C2O)cc1F` (stereo partly drawn), the pKa in data set [1] is 7.5.

In general, Ki refers to a dissociation constant, usually derived from enzyme kinetics or from competition with a known ligand. For the molecule `O=c1ccn([C@@H]2O[C@H](CO)[C@@H](O)[C@H](O)[C@H]2O)c(=O)[nH]1`, the affinity in data set [2], expressed as Ki, was 6.1 µM.

`Nc1ccn([C@@H]2O[C@H](CO)[C@@H](O)[C@H](O)[C@H]2O)c(=O)n1`: affinity in data set [2] was put at a Ki of 7.7 µM.
